Assay results: US20100061928A1, “LABELLED ANALOGUES OF HALOBENZAMIDES AS RADIOPHARMACEUTICALS” (Institut National De La Sante et De La Recherche Medicale …, priority 2006, published 2010)
Counter-ions that a name gives are not always drawn.

What was measured:
[1] = Elimination of the molecules: cumulative urinary and faecal excretion 0-72 hours; type: in vivo, mouse
tumour = assay: Dosimetry with regard to the tumour (MIRD programme, extrapolated to ^131I)
[2] = tested on: grafted B16 F0 murine melanoma tumour; assay: Biodistribution of the ^125I-labelled molecules in the melanoma-bearing mouse (autoradiography of whole-body sections); details: ^125I-labelled compound

CCN(CC)CCNC(=O)c1ccc(I)nc1 [compound 7, N-(2-diethylaminoethyl)-6-iodonicotinamide dihydrochloride]
Faecal elimination 0-72 hours (Faeces) ([1]; cumulative excretion 0-72 hours, faeces, mice in metabolic cages): 5.3%
Urinary and faecal elimination 0-72 hours (Total) ([1]; cumulative excretion 0-72 hours, urine + faeces): 72.6%
Urinary elimination 0-72 hours (Urine) ([1]; cumulative excretion 0-72 hours, urine, mice in metabolic cages): 67.3%
elimination route (in words) ([1]; urinary versus faecal, 0-72 hours): predominantly in the urine
Effective period (tumour; extrapolated to 131I labelling): 17.3 h
Biological period (tumour; from biodistribution data): 19.0 hours
Concentration of radioactivity, B 16 (tumour), Mean ([2]; 1 H after i.v. administration): 15.49 % ID/g
Concentration of radioactivity, GB (gall bladder), Mean ([2]; 1 H after i.v. administration): 8.68 % ID/g
Concentration of radioactivity, Ic (intestinal contents), Mean ([2]; 1 H after i.v. administration): 13.44 % ID/g
Concentration of radioactivity, SV (seminal vesicles), Mean ([2]; 1 H after i.v. administration): 6.79 % ID/g
Concentration of radioactivity, Sc (stomach contents), Mean ([2]; 1 H after i.v. administration): 34.80 % ID/g
Concentration of radioactivity, blood (measured in the heart cavity), Mean ([2]; 1 H after i.v. administration): 6.67 % ID/g
Concentration of radioactivity, brain, Mean ([2]; 1 H after i.v. administration): 0.64 % ID/g
Concentration of radioactivity, kidney, Mean ([2]; 1 H after i.v. administration): 6.08 % ID/g
Concentration of radioactivity, liver, Mean ([2]; 1 H after i.v. administration): 5.14 % ID/g
Concentration of radioactivity, lungs, Mean ([2]; 1 H after i.v. administration): 7.59 % ID/g
Concentration of radioactivity, muscle (skeletal muscle), Mean ([2]; 1 H after i.v. administration): 1.48 % ID/g
Concentration of radioactivity, pancreas, Mean ([2]; 1 H after i.v. administration): 3.94 % ID/g
Concentration of radioactivity, spleen, Mean ([2]; 1 H after i.v. administration): 5.44 % ID/g
Concentration of radioactivity, testicles, Mean ([2]; 1 H after i.v. administration): 4.11 % ID/g
Concentration of radioactivity, thyroid, Mean ([2]; 1 H after i.v. administration): 25.29 % ID/g
Concentration of radioactivity, uvea (pigmented tissues of the eye), Mean ([2]; 1 H after i.v. administration): 16.66 % ID/g
Concentration of radioactivity, B 16 (tumour), Mean ([2]; 3 H after i.v. administration): 9.27 % ID/g
Concentration of radioactivity, GB (gall bladder), Mean ([2]; 3 H after i.v. administration): 6.78 % ID/g
Concentration of radioactivity, Ic (intestinal contents), Mean ([2]; 3 H after i.v. administration): 4.94 % ID/g
Concentration of radioactivity, SV (seminal vesicles), Mean ([2]; 3 H after i.v. administration): 3.78 % ID/g
Concentration of radioactivity, Sc (stomach contents), Mean ([2]; 3 H after i.v. administration): 42.71 % ID/g
Concentration of radioactivity, blood (measured in the heart cavity), Mean ([2]; 3 H after i.v. administration): 4.22 % ID/g
Concentration of radioactivity, brain, Mean ([2]; 3 H after i.v. administration): 0.22 % ID/g
Concentration of radioactivity, kidney, Mean ([2]; 3 H after i.v. administration): 3.26 % ID/g
Concentration of radioactivity, liver, Mean ([2]; 3 H after i.v. administration): 3.01 % ID/g
Concentration of radioactivity, lungs, Mean ([2]; 3 H after i.v. administration): 3.96 % ID/g
Concentration of radioactivity, pancreas, Mean ([2]; 3 H after i.v. administration): 2.53 % ID/g
Concentration of radioactivity, spleen, Mean ([2]; 3 H after i.v. administration): 2.68 % ID/g
Concentration of radioactivity, testicles, Mean ([2]; 3 H after i.v. administration): 2.43 % ID/g
Concentration of radioactivity, thyroid, Mean ([2]; 3 H after i.v. administration): 59.09 % ID/g
Concentration of radioactivity, uvea (pigmented tissues of the eye), Mean ([2]; 3 H after i.v. administration): 12.69 % ID/g
Concentration of radioactivity, B 16 (tumour), Mean ([2]; 6 H after i.v. administration): 6.97 % ID/g
Concentration of radioactivity, GB (gall bladder), Mean ([2]; 6 H after i.v. administration): 4.90 % ID/g
Concentration of radioactivity, Ic (intestinal contents), Mean ([2]; 6 H after i.v. administration): 2.98 % ID/g
Concentration of radioactivity, SV (seminal vesicles), Mean ([2]; 6 H after i.v. administration): 3.55 % ID/g
Concentration of radioactivity, Sc (stomach contents), Mean ([2]; 6 H after i.v. administration): 50.21 % ID/g
Concentration of radioactivity, blood (measured in the heart cavity), Mean ([2]; 6 H after i.v. administration): 3.71 % ID/g
Concentration of radioactivity, brain, Mean ([2]; 6 H after i.v. administration): 0.12 % ID/g
Concentration of radioactivity, kidney, Mean ([2]; 6 H after i.v. administration): 3.05 % ID/g
Concentration of radioactivity, liver, Mean ([2]; 6 H after i.v. administration): 2.09 % ID/g
Concentration of radioactivity, lungs, Mean ([2]; 6 H after i.v. administration): 3.21 % ID/g
Concentration of radioactivity, muscle (skeletal muscle), Mean ([2]; 6 H after i.v. administration): 0.53 % ID/g
Concentration of radioactivity, pancreas, Mean ([2]; 6 H after i.v. administration): 2.27 % ID/g
Concentration of radioactivity, spleen, Mean ([2]; 6 H after i.v. administration): 2.35 % ID/g
Concentration of radioactivity, testicles, Mean ([2]; 6 H after i.v. administration): 2.01 % ID/g
Concentration of radioactivity, thyroid, Mean ([2]; 6 H after i.v. administration): 7.92 % ID/g
Concentration of radioactivity, uvea (pigmented tissues of the eye), Mean ([2]; 6 H after i.v. administration): 11.50 % ID/g
Concentration of radioactivity, B 16 (tumour), Mean ([2]; 24 H after i.v. administration): 2.69 % ID/g
Concentration of radioactivity, Sc (stomach contents), Mean ([2]; 24 H after i.v. administration): 1.46 % ID/g
Concentration of radioactivity, thyroid, Mean ([2]; 24 H after i.v. administration): 111.30 % ID/g
Concentration of radioactivity, uvea (pigmented tissues of the eye), Mean ([2]; 24 H after i.v. administration): 6.07 % ID/g
Concentration of radioactivity, B 16 (tumour), Mean ([2]; 72 H after i.v. administration): 0.87 % ID/g
Concentration of radioactivity, kidney, Mean ([2]; 72 H after i.v. administration): 1.09 % ID/g
Concentration of radioactivity, thyroid, Mean ([2]; 72 H after i.v. administration): 178.80 % ID/g
Concentration of radioactivity, uvea (pigmented tissues of the eye), Mean ([2]; 72 H after i.v. administration): 2.54 % ID/g
